Data published in patent EP0641363B1, “DETERGENT COMPOSITIONS CONTAINING COPOLYMERS” (UNILEVER PLC, priority 1992, dated 1993).

Test: Calcium binding: titration with calcium chloride solution using a calcium-ion-selective electrode; binding constant calculated by the method of Tanford
Procedure: The calcium binding properties of the polymers were measured by titration of the samples with a calcium chloride solution using a calcium-ion-selective electrode of the type Radiometer (Trade Mark) F2112Ca. The calcium binding constant pKCa2+ was calculated by the method of C Tanford in Chapter 8, Multiple Equilibria, Physical Chemistry of Macromolecules, John Wiley, New York, 1961.
Values of pKCa2+ of 4.0 or above represent materials likely to be useful as detergency builders, either alone or in conjunction with other builder materials. The value for sodium tripolyphosphate is 6.0, and any figure higher than this indicates excellent building.

## O=P(O)(O)OP(=O)(O)OP(=O)(O)O [sodium tripolyphosphate]
  pKCa2+: 6.0
